Assay results from PubChem BioAssay (NCI).
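Protocol summary: plate cells (96-well), add compound at 5 concentrations, incubate 48 h, interpolate endpoints linearly. GI50: concentration for 50% inhibition of growth. TGI: total growth inhibition.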

Experiments:
Test in all cases: DTP human tumour cell line panel, 48 h
[1] = tested on: MDA-MB-435
[2] = tested on: IGROV1 ovarian
[3] = tested on: MCF7 breast
[4] = tested on: PC-3 prostate
[5] = tested on: MALME-3M melanoma
[6] = tested on: T-47D breast
[7] = tested on: SK-MEL-28 melanoma
[8] = tested on: MOLT-4 leukemia
[9] = tested on: HCT-116 colon
[10] = tested on: A498 renal
[11] = tested on: SN12C renal
[12] = tested on: RXF 393 renal
[13] = tested on: CAKI-1 renal
[14] = tested on: HS 578T breast
[15] = tested on: OVCAR-4 ovarian
[16] = tested on: HOP-62 NSCLC
[17] = tested on: NCI-H522 lung
[18] = tested on: NCI-H23 lung
[19] = tested on: SF-268 CNS
[20] = tested on: SK-OV-3 ovarian
[21] = tested on: ACHN renal
[22] = tested on: SW-620 colon
[23] = tested on: U251 CNS
[24] = tested on: LOX IMVI melanoma
[25] = tested on: SNB-19 CNS
[26] = tested on: UACC-62 melanoma
[27] = tested on: NCI/ADR-RES ovarian
[28] = tested on: DU-145 prostate
[29] = tested on: RPMI-8226 leukemia
[30] = tested on: SF-295 CNS
[31] = tested on: HCT-15 colon
[32] = tested on: OVCAR-3 ovarian
[33] = tested on: TK-10 renal
[34] = tested on: OVCAR-8 ovarian
[35] = tested on: SF-539 CNS
[36] = tested on: NCI-H460 lung
[37] = tested on: UACC-257 melanoma
[38] = tested on: HCC-2998 colon
[39] = tested on: SK-MEL-5 melanoma
[40] = tested on: UO-31 renal
[41] = tested on: M14 melanoma
[42] = tested on: NCI-H226 lung
[43] = tested on: CCRF-CEM leukemia
[44] = tested on: COLO 205 colon
[45] = tested on: SK-MEL-2 melanoma
[46] = tested on: SR leukemia
[47] = tested on: 786-0 renal
[48] = tested on: OVCAR-5 ovarian
[49] = tested on: MDA-MB-231 breast
[50] = tested on: HT29 colon
[51] = tested on: K-562 leukemia
[52] = tested on: A549 NSCLC
[53] = tested on: BT-549 breast
[54] = tested on: KM12 colon
[55] = tested on: HL-60(TB) leukemia
[56] = tested on: SNB-75 CNS

Compound: Cn1cc(C2=C(c3cn(CCCCN)c4ccccc34)C(=O)NC2=O)c2ccccc21
- GI50 [1]: > 25 µM
- TGI [1]: > 25 µM
- GI50 [2]: > 25 µM
- TGI [2]: > 25 µM
- GI50 [3]: > 25 µM
- TGI [3]: > 25 µM
- GI50 [4]: > 25 µM
- TGI [4]: > 25 µM
- GI50 [5]: > 25 µM
- TGI [5]: > 25 µM
- GI50 [6]: > 25 µM
- TGI [6]: > 25 µM
- GI50 [7]: > 25 µM
- TGI [7]: > 25 µM
- GI50 [8]: > 25 µM
- TGI [8]: > 25 µM
- GI50 [9]: > 25 µM
- TGI [9]: > 25 µM
- GI50 [10]: > 25 µM
- TGI [10]: > 25 µM
- GI50 [11]: > 25 µM
- TGI [11]: > 25 µM
- GI50 [12]: > 25 µM
- TGI [12]: > 25 µM
- GI50 [13]: > 25 µM
- TGI [13]: > 25 µM
- GI50 [14]: > 25 µM
- TGI [14]: > 25 µM
- GI50 [15]: > 25 µM
- TGI [15]: > 25 µM
- GI50 [16]: > 25 µM
- TGI [16]: > 25 µM
- GI50 [17]: > 25 µM
- TGI [17]: > 25 µM
- GI50 [18]: > 25 µM
- TGI [18]: > 25 µM
- GI50 [19]: > 25 µM
- TGI [19]: > 25 µM
- GI50 [20]: > 25 µM
- TGI [20]: > 25 µM
- GI50 [21]: > 25 µM
- TGI [21]: > 25 µM
- GI50 [22]: > 25 µM
- TGI [22]: > 25 µM
- GI50 [23]: > 25 µM
- TGI [23]: > 25 µM
- GI50 [24]: > 25 µM
- TGI [24]: > 25 µM
- GI50 [25]: > 25 µM
- TGI [25]: > 25 µM
- GI50 [26]: > 25 µM
- TGI [26]: > 25 µM
- GI50 [27]: > 25 µM
- TGI [27]: > 25 µM
- GI50 [28]: > 25 µM
- TGI [28]: > 25 µM
- GI50 [29]: > 25 µM
- TGI [29]: > 25 µM
- TGI [30]: > 25 µM
- GI50 [31]: > 25 µM
- TGI [31]: > 25 µM
- GI50 [32]: > 25 µM
- TGI [32]: > 25 µM
- GI50 [33]: > 25 µM
- TGI [33]: > 25 µM
- GI50 [34]: > 25 µM
- TGI [34]: > 25 µM
- GI50 [35]: > 25 µM
- TGI [35]: > 25 µM
- GI50 [36]: > 25 µM
- TGI [36]: > 25 µM
- GI50 [37]: > 25 µM
- TGI [37]: > 25 µM
- GI50 [38]: > 25 µM
- TGI [38]: > 25 µM
- GI50 [39]: > 25 µM
- TGI [39]: > 25 µM
- GI50 [40]: > 25 µM
- TGI [40]: > 25 µM
- GI50 [41]: > 25 µM
- TGI [41]: > 25 µM
- GI50 [42]: > 25 µM
- TGI [42]: > 25 µM
- GI50 [43]: > 25 µM
- TGI [43]: > 25 µM
- GI50 [44]: > 25 µM
- TGI [44]: > 25 µM
- GI50 [45]: > 25 µM
- TGI [45]: > 25 µM
- GI50 [46]: > 25 µM
- TGI [46]: > 25 µM
- GI50 [47]: > 25 µM
- TGI [47]: > 25 µM
- GI50 [48]: > 25 µM
- TGI [48]: > 25 µM
- GI50 [49]: > 25 µM
- TGI [49]: > 25 µM
- GI50 [50]: > 25 µM
- TGI [50]: > 25 µM
- GI50 [51]: > 25 µM
- TGI [51]: > 25 µM
- GI50 [52]: > 25 µM
- TGI [52]: > 25 µM
- GI50 [53]: > 25 µM
- TGI [53]: > 25 µM
- GI50 [54]: > 25 µM
- TGI [54]: > 25 µM
- GI50 [55]: > 25 µM
- TGI [55]: > 25 µM
- GI50 [56]: > 25 µM
- TGI [56]: > 25 µM
